Reference: patent US10195185B2, “3-(1H-imidazo[4,5-C]pyridin-2-yl)-1H-pyrazolo[4,3-B]pyridines and therapeutic uses thereof” (Samumed, LLC, priority 2015, dated 2019)

Key:
[1] = system: Primary human fibroblasts derived from IPF patients (LL29 cells) treated with TGF-β1; assay: Inhibition of the fibrotic process: αSMA staining in TGF-β1 treated fibroblasts; type: cell-based; details: Fibroblast, 96 h, LL29 fibroblasts treated with TGF-β1, 4 days; for inhibition at 10 µM: read-out: percent inhibition in brackets beside EC50 >10 μM
In short: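 Potency reflects suppression of TGF-β1-driven αSMA expression in IPF patient fibroblasts over 4 days. Values are EC50s from normalized αSMA-positive cell counts, with % inhibition at 10 μM when EC50 exceeded 10 μM.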

[2] = system: primary human mesenchymal stem cells (hMSCs); assay: Induction of chondrogenesis in hMSCs (nodule area, Rhodamine B / Nile Red); type: cell-based; details: TGF-β3 as positive control; for Emax: read-out: Max. Activity as % TGF-β3 activity; for EC50: concentration required to induce 50% levels of chondrogenesis, read-out: Conc (nM) of 50% TGF-β3 activity
Experimental: Representative compounds were screened using primary human mesenchymal stem cells (hMSCs) to determine their ability to induce chondrogenesis (process by which cartilage is developed).
Primary human mesenchymal stem cells (hMSCs) were purchased from Lonza (Walkersville, Md.) and expanded in Mesenchymal Stem Cell Growth Media (Lonza). Cells between passage 3 and 6 were used for the experiments.
Each compound was dissolved in DMSO as a 10 mM stock and used to prepare compound source plates. For the 96 well assay, serial dilution (1:3, 6-point dose-response curves from 2700 nM to 10 nM) and compound transfer was performed using the ECHO 550 (Labcyte, Sunnyvale, Calif.) into 96-well clear bottom assay plates (Greiner Bio-One) with appropriate DMSO backfill for a final DMSO concentration of 0.03%. hMSCs were plated at 20,000 cells/well in 250 μL/well Incomplete Chondrogenic Induction Medium (Lonza; DMEM, dexamethasone, ascorbate, insulin-transferrin-selenium [ITS supplement], gentamycin-amphotericin [GA-1000], sodium pyruvate, proline and L-glutamine). TGF-β3 (10 ng/mL) was used as a positive control for differentiation while negative control wells were treated with 75 nL DMSO for normalization and calculating EC50 values. For the 384 well assay, serial dilution (1:3, 8-point dose-response curves from 5000 nM to 2.2 nM) and compound transfer was performed using the ECHO 550 (Labcyte, Sunnyvale, Calif.) into 384-well clear bottom assay plates (Greiner Bio-One) with appropriate DMSO backfill for a final DMSO concentration of 0.03%. hMSCs were plated at 8,000 cells/well in 80 μL/well Incomplete Chondrogenic Induction Medium (Lonza; DMEM, dexamethasone, ascorbate, insulin-transferrin-selenium [ITS supplement], gentamycin-amphotericin [GA-1000], sodium pyruvate, proline and L-glutamine). TGF-β3 (10 ng/mL) was used as a positive control for differentiation while negative control wells were treated with 25 nL DMSO for normalization and calculating EC50 values. Cells were incubated at 37° C. and 5% CO2 for 6 days. To image chondrogenic nodules, the cells were fixed using 4% formaldehyde (Electron Microscopy Sciences), and stained with 2 μg/mL Rhodamine B (Sigma-Aldrich) and 20 μM Nile Red (Sigma-Aldrich) [Johnson K., et. al, A Stem Cell-Based Approach to Cartilage Repair, Science, (2012), 336(6082), 717-721]. The nodules imaged (25 images per well for 96 well plates and 9 images per well for 384 well plates at 10× magnification) by excitation at 531 nm and emission at 625 nm and quantified using the CellInsight CX5 (Thermo Scientific). Area of nodules in each well was normalized to the average of 3 DMSO treated wells on the same plate using Excel (Microsoft Inc.). The normalized averages (fold change over DMSO) of 2 or 3 replicate wells for each compound concentration were calculated. Due to solubility limitations of some of the compounds, curve fitting was incomplete leading to inaccurate EC50 determinations.
Using TGF-β3 as a positive control, the concentration of representative compounds required to induce 50% levels of chondrogenesis is reported. In addition, the maximum activity of each compound and the respective dose that each compound reached maximum chondrogenesis activity is reported.

Compound	EC50 [2] [nM]	EC50 [1] [nM]	Emax [2] [%]	inhibition at 10 µM [1] [%]
CN(C)c1cncc(-c2ccc3[nH]nc(-c4nc5c(N6CCCCC6)nccc5[nH]4)c3n2)c1 [Compound 175, N,N-Dimethyl-5-(3-(4-(piperidin-1-yl)-1H-imidazo[4,5-c]pyridin-2-yl)-1H-pyrazolo [4,3-b]pyridin-5-yl)pyridin-3-amine]	–	2400	48	–
Cc1cn(-c2nccc3[nH]c(-c4n[nH]c5ccc(-c6cncc(CN7CCCC7)c6)nc45)nc23)cn1 [Compound 210, 3-(4-(4-Methyl-1H-imidazol-1-yl)-1H-imidazo[4,5-c]pyridin-2-yl)-5-(5-(pyrrolidin-1-ylmethyl)pyridin-3-yl)-1H-pyrazolo [4,3-b]pyridine]	–	> 10000	50	2.9
CC(C)C(=O)Nc1cncc(-c2ccc3[nH]nc(-c4nc5c(N6CCN(C)CC6)nccc5[nH]4)c3n2)c1 [Compound 233, N-(5-(3-(4-(4-Methylpiperazin-1-yl)-1H-imidazo[4,5-c]pyridin-2-yl)-1H-pyrazolo[4,3-b]pyridin-5-yl)pyridin-3-yl)isobutyramide]	900	> 10000	64	2.5
CC(C)(C)C(=O)Nc1cncc(-c2ccc3[nH]nc(-c4nc5c(-c6ccc(F)cc6)nccc5[nH]4)c3n2)c1 [Compound 36, N-(5-(3-(4-(4-Fluorophenyl)-1H-imidazo[4,5-c]pyridin-2-yl)-1H-pyrazolo [4,3-b]pyridin-5-yl)pyridin-3-yl)pivalamide]	10	1280	56	–
Fc1ccc(-c2nccc3[nH]c(-c4n[nH]c5ccc(-c6cncc(CN7CCCC7)c6)nc45)nc23)cc1 [Compound 42, 3-(4-(4-Fluorophenyl)-1H-imidazo[4,5-c]pyridin-2-yl)-5-(5-(pyrrolidin-1-ylmethyl)pyridin-3-yl)-1H-pyrazolo[4,3-b]pyridine]	–	2870	39	–
CCNCc1cncc(-c2ccc3[nH]nc(-c4nc5c(-c6ccoc6)nccc5[nH]4)c3n2)c1 [Compound 314, N-((5-(3-(4-(Furan-3-yl)-1H-imidazo[4,5-c]pyridin-2-yl)-1H-pyrazolo[4,3-b]pyridin-5-yl)pyridin-3-yl)methyl)ethanamine]	–	> 10000	33	20.6
CC(C)(C)C(=O)Nc1cncc(-c2ccc3[nH]nc(-c4nc5c(-c6ccc(Cl)s6)nccc5[nH]4)c3n2)c1 [Compound 1043, N-(5-(3-(4-(5-Chlorothiophen-2-yl)-1H-imidazo[4,5-c]pyridin-2-yl)-1H-pyrazolo[4,3-b]pyridin-5-yl)pyridin-3-yl)pivalamide]	10	> 10000	67	22
c1cncc(-c2ccc3[nH]nc(-c4nc5c(-c6cccnc6)nccc5[nH]4)c3n2)c1 [Compound 88, 5-(Pyridin-3-yl)-3-(4-(pyridin-3-yl)-1H-imidazo[4,5-c]pyridin-2-yl)-1H-pyrazolo[4,3-b]pyridine]	100	> 10000	70	22.2
CCCCC(=O)Nc1cncc(-c2ccc3[nH]nc(-c4nc5c(-c6ccccn6)nccc5[nH]4)c3n2)c1 [Compound 159, N-(5-(3-(4-(Pyridin-2-yl)-1H-imidazo[4,5-c]pyridin-2-yl)-1H-pyrazolo[4,3-b]pyridin-5-yl)pyridin-3-yl)pentanamide]	10	4040	113	–

The remaining molecules from weak to strong by EC50 [2], led by results:

EC50 [2] [nM]	Compound	EC50 [1] [nM]	Emax [2] [%]	inhibition at 10 µM [1] [%]
30	CC(C)Nc1cncc(-c2ccc3[nH]nc(-c4nc5c(-c6ccoc6)nccc5[nH]4)c3n2)c1 [Compound 320, 5-(3-(4-(Furan-3-yl)-1H-imidazo[4,5-c]pyridin-2-yl)-1H-pyrazolo[4,3-b]pyridin-5-yl)-N-isopropylpyridin-3-amine]	170	76	–
30	Fc1cccc(-c2nccc3[nH]c(-c4n[nH]c5ccc(-c6cncc(CN7CCC(F)(F)C7)c6)nc45)nc23)c1 [Compound 26, 5-(5-((3,3-Difluoropyrrolidin-1-yl)methyl)pyridin-3-yl)-3-(4-(3-fluorophenyl)-1H-imidazo[4,5-c]pyridin-2-yl)-1H-pyrazolo[4,3-b]pyridine]	3210	58	–
30	c1cncc(-c2ccc3[nH]nc(-c4nc5cnccc5[nH]4)c3n2)c1 [Compound 256, 3-(1H-Imidazo[4,5-c]pyridin-2-yl)-5-(pyridin-3-yl)-1H-pyrazolo[4,3-b]pyridine]	> 10000	55	0
10	CC(C)C(=O)Nc1cncc(-c2ccc3[nH]nc(-c4nc5c(-c6ccccc6F)nccc5[nH]4)c3n2)c1 [Compound 65, N-(5-(3-(4-(2-fluorophenyl)-1H-imidazo[4,5-c]pyridin-2-yl)-1H-pyrazolo [4,3-b]pyridin-5-yl)pyridin-3-yl)isobutyramide]	> 10000	140	4
10	CC(C)CC(=O)Nc1cncc(-c2ccc3[nH]nc(-c4nc5c(-c6ccc(Cl)s6)nccc5[nH]4)c3n2)c1 [Compound 1037, N-(5-(3-(4-(5-Chlorothiophen-2-yl)-1H-imidazo[4,5-c]pyridin-2-yl)-1H-pyrazolo [4,3-b]pyridin-5-yl)pyridin-3-yl)-3-methylbutanamide]	776	104	–
7	CN(C)CC(=O)Nc1cncc(-c2ccc3[nH]nc(-c4nc5c(-c6cccc(F)c6)nccc5[nH]4)c3n2)c1 [Compound 969, 2-(Dimethylamino)-N-(5-(3-(4-(3-fluorophenyl)-1H-imidazo[4,5-c]pyridin-2-yl)-1H-pyrazolo[4,3-b]pyridin-5-yl)pyridin-3-yl)acetamide]	1630	63	–
7	CCCC(=O)Nc1cncc(-c2ccc3[nH]nc(-c4nc5c(-c6ccsc6)nccc5[nH]4)c3n2)c1 [Compound 297, N-(5-(3-(4-(Thiophen-3-yl)-1H-imidazo[4,5-c]pyridin-2-yl)-1H-pyrazolo [4,3-b]pyridin-5-yl)pyridin-3-yl)butyramide]	> 10000	358	16.1
7	CCC(=O)Nc1cncc(-c2ccc3[nH]nc(-c4nc5c(-c6cccs6)nccc5[nH]4)c3n2)c1 [Compound 337, N-(5-(3-(4-(Thiophen-2-yl)-1H-imidazo[4,5-c]pyridin-2-yl)-1H-pyrazolo [4,3-b]pyridin-5-yl)pyridin-3-yl)propionamide]	1080	179	–
